Laboratory results reported in patent US20120010404A1, “OXAZINE DYES WITH IMPROVED AQUEOUS SOLUBILITY” (SIGMA-ALDRICH CO., priority 2008, published 2012).

Experiment: Fluorescence quenching with tryptophan (steady-state, Stern-Volmer)
Format: physicochemical
Settings: phosphate buffered solutions, pH = 8.0, 25° C.; in M-1 (unit assumed)
Experimental: FIG. 4 illustrates the fluorescence quenching by tryptophan. Shown is the fluorescence of Dye 3 in the absence and presence of various concentration of tryptophan (Trp) in phosphate buffer (pH 8) as a function of wavelength.
Steady-state fluorescence spectroscopy was performed for Dye 2, Dye 3, Dye 14, and Mr121 dye in presence of tryptophan at 25° C. in phosphate buffer.
For evaluating the quenching efficiency, the steady-state fluorescence quenching results were analyzed following the Stern-Volmer equation F0/F=1+KQ[Q], where Fo and F are the fluorescence intensities in the absence and presence of tryptophan and KQ is a static Stern-Volmer constant.

Row | Structure (SMILES) | Tryptophan Stern-Volmer static quenching constant, KQ
1 | CC1(C)CC(CS(=O)(=O)[O-])c2cc3c(cc2=[N+]1CCCC(=O)O)Oc1cc2c(cc1N=3)CCCN2CCCS(=O)(=O)O (stereo not drawn) [Dye 2, sodium 3-(11-(3-carboxypropyl)-10,10-dimethyl-8-(sulfonatomethyl)-2,3,4,8,9,10-hexahydro-1H-dipyrido[3,2-b:2′,3′-i]phenoxazin-11-ium-1-yl)propane-1-sulfonate] | 263 ± 24
2 | CC1CC(C)(C)N(CCCS(=O)(=O)O)c2cc3c(cc21)N=c1cc2c(cc1O3)=[N+](CCCC(=O)O)C(C)(C)CC2CS(=O)(=O)[O-] (stereo not drawn) [Dye 3, sodium 3-(11-(3-carboxypropyl)-2,2,4,10,10-pentamethyl-8-(sulfonatomethyl)-2,3,4,8,9,10-hexahydro-1H-dipyrido[3,2-b:2′,3′-i]phenoxazin-11-ium-1-yl)propane-1-sulfonate] | 320 ± 26
3 | CC1(C)CC(CS(=O)(=O)[O-])c2cc3c(cc2N1CCCS(=O)(=O)[O-])Oc1cc2c(cc1=N3)C(CS(=O)(=O)[O-])CC(C)(C)[N+]=2CCCC(=O)O.[Na+].[Na+] (stereo not drawn) [Dye 14, disodium (11-(3-carboxypropyl)-2,2,10,10-tetramethyl-1-(3-sulfonatopropyl)-2,3,4,8,9,10-hexahydro-1H-dipyrido[3,2-b:2′,3′-i]phenoxazine-11-ium-4,8-diyl)dimethanesulfonate] | 269 ± 22
